From ChEMBL document CHEMBL1649287, “Postantibiotic effect of ceftaroline against gram-positive organisms” (2009) come the findings set out here.

For test [1], the system named is Staphylococcus aureus. Description: Antimicrobial activity against Staphylococcus aureus ATCC 29213 assessed as post antibiotic effect at 10 times MIC after 2 hr by plate counting method. The test is classed as functional.
The subject of test [2] is Streptococcus pneumoniae. The experiment in a line: Antimicrobial activity against Streptococcus pneumoniae ATCC 6306 assessed as post antibiotic effect at 10 times MIC after 2 hr by plate counting method. In kind it is functional.

As to `CO/N=C(\C(=O)N[C@@H]1C(=O)N2C(C(=O)O)=C(CSc3nc(=O)c(O)nn3C)CS[C@H]12)c1csc(N)n1` [CEFTRIAXONE], the PAE in test [1] came out at 2.3 h; in test [2], 0.7 h.
